For one series, the system named is Staph. aureus 209-P. Kind of series: anti-bacterial activity, MIC, Staph. aureus 209-P. The conditions noted are these: Staphylococcus aureus, inoculum size 10^6 CFU/ml. Format: cell-based. From the text: (§1) Test bacterium MIC (μg/ml) Inoculum size 10^6 CFU/ml
Another series has as its system Pseud. aeruginosa EP-01. Kind of series: anti-bacterial activity, MIC, Pseud. aeruginosa EP-01. In kind it is cell-based. The conditions noted are these: Pseudomonas aeruginosa, EP01, inoculum size 10^6 CFU/ml.
Excerpt: as §1

The subject of series [1] is Morganella morganii EP-14. Briefly: anti-bacterial activity, MIC, Morganella morganii EP-14. Format: cell-based. The conditions noted are these: EP14, inoculum size 10^6 CFU/ml.
Excerpt: as §1

A further series deals with Escher. coli NIHJ. Kind of series: anti-bacterial activity, MIC, Escher. coli NIHJ. In kind it is cell-based. To be noted: Escherichia coli, inoculum size 10^6 CFU/ml.
Excerpt: as §1

In a further series the test system is Kleb. pneumoniae EK-6. Briefly: anti-bacterial activity, MIC, Kleb. pneumoniae EK-6. In kind it is cell-based. To be noted: Klebsiella pneumoniae, EK6.
Excerpt: as §1

For a further series, the system named is Ser. marcescens ES-75. Kind of series: anti-bacterial activity, MIC, Ser. marcescens ES-75. In kind it is cell-based. To be noted: Serratia marcescens, ES75.
Excerpt: as §1

Series [2] in a line: Acute toxicity, LD50 (mouse, intravenous injection). To be noted: in vivo. From the text:
Acute toxicity [LD50 (mouse, intravenous injection)] of the following compounds was more than 3 g/kg, respectively.

The mark [3] stands for this setting: Kleb. pneumoniae EK-6, inoculum size 10^6 CFU/ml, read-out: MIC.
Where [4] appears, read: Ser. marcescens ES-75, inoculum size 10^6 CFU/ml, read-out: MIC.

The term MIC denotes the lowest concentration that inhibits growth of the organism. As a reminder, the LD50 is the dose expected to kill half of the subjects tested.

Molecules are shown by their SMILES. In brackets after ≈: the same amount, converted by molar mass. Like-named read-outs stand apart in the source and are kept apart here.

For the compound `NC(=O)C12CC[N+](CC3=C(C(=O)[O-])N4C(=O)[C@@H](NC(=O)/C(=N\OCF)c5nsc(N)n5)[C@H]4SC3)(CC1)CC2` [Example 1, 7β-[2-(5-Amino-1,2,4-thiadiazol-3-yl)-(Z)-2-fluoromethoxyiminoacetamido]-3-(4-carbamoyl-1-quinuclidinio)methyl-3-cephem-4-carboxylate], the MIC in the series on Staph. aureus 209-P is 1.56 µg/mL (≈ 2.74 µM); against Pseud. aeruginosa EP-01, 0.4 µg/mL (≈ 0.703 µM); in series [1], 0.05 µg/mL (≈ 0.0879 µM); against Escher. coli NIHJ, 0.05 µg/mL (≈ 0.0879 µM); in the series with Kleb. pneumoniae EK-6 (setting [3]), 0.05 µg/mL (≈ 0.0879 µM); in the series with Ser. marcescens ES-75 (setting [4]), 0.1 µg/mL (≈ 0.176 µM). For the same compound, in series [2], the LD50 is > 3000 mg/kg.

`CC12CC[N+](CC3=C(C(=O)[O-])N4C(=O)[C@@H](NC(=O)/C(=N\OCF)c5nsc(N)n5)[C@H]4SC3)(CC1)CC2` [Example 2, 7β-[2-(5-Amino-1,2,4-thiadiazol-3-yl)-(Z)-2-fluoromethoxyiminoacetamido]-3-(4-methyl-1-quinuclidinio)methyl-3-cephem-4-carboxylate]: the MIC stood at 0.8 µg/mL (≈ 1.48 µM) against Staph. aureus 209-P; 0.8 µg/mL (≈ 1.48 µM) in the series with Pseud. aeruginosa EP-01; 0.1 µg/mL (≈ 0.185 µM) in series [1]; 0.05 µg/mL (≈ 0.0927 µM) against Escher. coli NIHJ; 0.05 µg/mL (≈ 0.0927 µM) with Kleb. pneumoniae EK-6 (setting [3]); 0.1 µg/mL (≈ 0.185 µM) in the series with Ser. marcescens ES-75.

As for `Nc1nc(/C(=N/OCF)C(=O)N[C@@H]2C(=O)N3C(C(=O)[O-])=C(C[N+]45CCC(O)(CC4)C5)CS[C@H]23)ns1` [Example 3, 7β-[2-(5-Amino-1,2,4-thiadiazol-3-yl)-(Z)-2-fluoromethoxyiminoacetamido]-3-(4-hydroxy-1,4-methylene-1-piperidinio)methyl-3-cephem-4-carboxylate], the MIC against Staph. aureus 209-P was 0.4 µg/mL (≈ 0.758 µM); against Pseud. aeruginosa EP-01, 0.8 µg/mL (≈ 1.52 µM); in series [1], 0.05 µg/mL (≈ 0.0948 µM); in the series with Escher. coli NIHJ it was 0.05 µg/mL (≈ 0.0948 µM); against Kleb. pneumoniae EK-6, 0.1 µg/mL (≈ 0.19 µM); with Ser. marcescens ES-75 (setting [4]), 0.1 µg/mL (≈ 0.19 µM). Also, in series [2], the LD50 was > 3000 mg/kg.

In the case of `C[N+]1(CC2=C(C(=O)[O-])N3C(=O)[C@@H](NC(=O)/C(=N\OCF)c4nsc(N)n4)[C@H]3SC2)CCCC1` [Example 4, 7β-[2-(5-Amino-1,2,4-thiadiazol-3-yl)-(Z)-2-fluoromethoxyiminoacetamido]-3-(1-methyl-1-pyrrolidinio)methyl-3-cephem-4-carboxylate], the minimum inhibitory concentration (MIC) was 0.8 µg/mL (≈ 1.6 µM) in the series on Staph. aureus 209-P; 0.8 µg/mL (≈ 1.6 µM) with Pseud. aeruginosa EP-01; ≤ 0.025 µg/mL in series [1]; ≤ 0.025 µg/mL against Escher. coli NIHJ; 0.05 µg/mL (≈ 0.1 µM) in the series with Kleb. pneumoniae EK-6 (setting [3]); 0.05 µg/mL (≈ 0.1 µM) in the series on Ser. marcescens ES-75 (setting [4]).

For `C[N+](C)(CCC(N)=O)CC1=C(C(=O)[O-])N2C(=O)[C@@H](NC(=O)/C(=N\OCF)c3nsc(N)n3)[C@H]2SC1` [Example 5, 7β-[2-(5-Amino-1,2,4-thiadiazol-3-yl)-(Z)-2-fluoromethoxyiminoacetamido]-3-[N,N-dimethyl-N-(2-carbamoyl)ethylammonio]methyl-3-cephem-4-carboxylate], the MIC was 1.56 µg/mL (≈ 2.94 µM) against Staph. aureus 209-P; 1.56 µg/mL (≈ 2.94 µM) in the series with Pseud. aeruginosa EP-01; 0.05 µg/mL (≈ 0.0942 µM) in series [1]; ≤ 0.025 µg/mL in the series on Escher. coli NIHJ; ≤ 0.025 µg/mL in the series with Kleb. pneumoniae EK-6 (setting [3]); 0.1 µg/mL (≈ 0.188 µM) against Ser. marcescens ES-75.

With `C[N+]1(CC2=C(C(=O)[O-])N3C(=O)[C@@H](NC(=O)/C(=N\OCF)c4nsc(N)n4)[C@H]3SC2)CC=C(C(N)=O)CC1` (stereo partly drawn) [Example 6, 7β-[2-(5-Amino-1,2,4-thiadiazol-3-yl)-(Z)-2-fluoromethoxyiminoacetamido]-3-(4-carbamoyl-1-methyl-1,2,3,6-tetrahydropyridinio)methyl-3-cephem-4-carboxylate], the MIC in the series with Staph. aureus 209-P turned out to be 1.56 µg/mL (≈ 2.81 µM); against Pseud. aeruginosa EP-01, 0.8 µg/mL (≈ 1.44 µM); in series [1], 0.05 µg/mL (≈ 0.0902 µM); in the series on Escher. coli NIHJ, 0.05 µg/mL (≈ 0.0902 µM); in the series with Kleb. pneumoniae EK-6 (setting [3]), 0.05 µg/mL (≈ 0.0902 µM); in the series with Ser. marcescens ES-75 (setting [4]) it was 0.1 µg/mL (≈ 0.18 µM).

Turning to `Nc1nc(/C(=N/OCF)C(=O)N[C@@H]2C(=O)N3C(C(=O)[O-])=C(C[N+](CCO)(CCO)CCO)CS[C@H]23)ns1` [Example 7, 7β-[2-(5-Amino-1,2,4-thiadiazol-3-yl)-(Z)-2-fluoromethoxyiminoacetamido]-3-[tris(2-hydroxyethyl)ammonio]methyl-3-cephem-4-carboxylate], the MIC in the series with Staph. aureus 209-P was 6.25 µg/mL (≈ 11.1 µM); in the series on Pseud. aeruginosa EP-01, 3.13 µg/mL (≈ 5.55 µM); in series [1], 0.1 µg/mL (≈ 0.177 µM); in the series on Escher. coli NIHJ, 0.1 µg/mL (≈ 0.177 µM); in the series on Kleb. pneumoniae EK-6 (setting [3]), 0.1 µg/mL (≈ 0.177 µM); in the series with Ser. marcescens ES-75 (setting [4]), 0.4 µg/mL (≈ 0.71 µM).

Regarding `Nc1nc(/C(=N/OCF)C(=O)N[C@@H]2C(=O)N3C(C(=O)[O-])=C(C[n+]4ccc5n4CCOC5)CS[C@H]23)ns1` [Example 8, 7β-[2-(5-Amino-1,2,4-thiadiazol-3-yl)-(Z)-2-fluoromethoxyiminoacetamido]-3-[1-morpholino-[4,3-b]pyrazolio]methyl-3-cephem-4-carboxylate], the MIC against Staph. aureus 209-P was 0.4 µg/mL (≈ 0.743 µM); against Pseud. aeruginosa EP-01 it was 0.8 µg/mL (≈ 1.49 µM); in series [1] it was 0.05 µg/mL (≈ 0.0928 µM); against Escher. coli NIHJ, ≤ 0.025 µg/mL; in the series on Kleb. pneumoniae EK-6 (setting [3]), 0.05 µg/mL (≈ 0.0928 µM); in the series on Ser. marcescens ES-75 (setting [4]), 0.05 µg/mL (≈ 0.0928 µM).

For the compound `Nc1nc(/C(=N/OCF)C(=O)N[C@@H]2C(=O)N3C(C(=O)[O-])=C(C[n+]4cccn4CCO)CS[C@H]23)ns1` [Example 9, 7β-[2-(5-Amino-1,2,4-thiadiazol-3-yl)-(Z)-2-fluoromethoxyiminoacetamido]-3-[2-(2-hydroxyethyl)-1-pyrazolio]methyl-3-cephem-4-carboxylate], the MIC turned out to be 0.4 µg/mL (≈ 0.76 µM) with Staph. aureus 209-P; 0.8 µg/mL (≈ 1.52 µM) against Pseud. aeruginosa EP-01; 0.05 µg/mL (≈ 0.095 µM) in series [1]; 0.05 µg/mL (≈ 0.095 µM) in the series with Escher. coli NIHJ; 0.05 µg/mL (≈ 0.095 µM) with Kleb. pneumoniae EK-6 (setting [3]); 0.05 µg/mL (≈ 0.095 µM) in the series with Ser. marcescens ES-75 (setting [4]).

Consider `Nc1nc(/C(=N/OCF)C(=O)N[C@@H]2C(=O)N3C(C(=O)[O-])=C(C[n+]4ccc5n4CCCC5)CS[C@H]23)ns1` [Example 10, 7β-[2-(5-Amino-1,2,4-thiadiazol-3-yl)-(Z)-2-fluoromethoxyiminoacetamido]-3-[1-(2,3-tetramethylene)pyrazolio]methyl-3-cephem-4-carboxylate], for which the minimum inhibitory concentration (MIC) in the series with Staph. aureus 209-P was 0.4 µg/mL (≈ 0.745 µM); against Pseud. aeruginosa EP-01, 0.8 µg/mL (≈ 1.49 µM); in series [1] it was 0.05 µg/mL (≈ 0.0932 µM); with Escher. coli NIHJ it was ≤ 0.025 µg/mL; with Kleb. pneumoniae EK-6 (setting [3]), ≤ 0.025 µg/mL; with Ser. marcescens ES-75 (setting [4]), 0.05 µg/mL (≈ 0.0932 µM).

Consider `Nc1nc(/C(=N/OCF)C(=O)N[C@@H]2C(=O)N3C(C(=O)[O-])=C(C[N+]45CCC(CO)(CC4)CC5)CS[C@H]23)ns1` [Example 11, 7β-[2-(5-Amino-1,2,4-thiadiazol-3-yl)-(Z)-2-fluoromethoxyiminoacetamido]-3-(4-hydroxylmethyl-1-quinuclidinio)methyl-3-cephem-4-carboxylate], for which the MIC is 0.8 µg/mL (≈ 1.44 µM) in the series with Staph. aureus 209-P; 0.4 µg/mL (≈ 0.72 µM) in the series on Pseud. aeruginosa EP-01; ≤ 0.025 µg/mL in series [1]; ≤ 0.025 µg/mL against Escher. coli NIHJ; ≤ 0.025 µg/mL in the series on Kleb. pneumoniae EK-6 (setting [3]); 0.1 µg/mL (≈ 0.18 µM) with Ser. marcescens ES-75 (setting [4]). The LD50 in series [2] is > 3000 mg/kg.
